Results taken from ChEMBL document CHEMBL4622945, “Synthesis and antiproliferative activity of C- and N-terminal analogues of culicinin D” (Bioorg Med Chem Lett, 2020).
Square brackets hold non-standard residues; d marks the D form. Peptide text beside a SMILES is read from it. * marks the point of attachment. NH((S)CH(Me)CH2NHC2H4OH) = C[C@@H](CNCCO)N*; NH((S)CH(Me)CH2NMe2) = C[C@@H](CN(C)C)N*; Gly(octyl) = CCCCCCCC[C@H](N)C(=O)O; Cha = N[C@@H](CC1CCCCC1)C(=O)O; Pip = O=C(O)[C@@H]1CCCCN1; X2 = C[C@@H](CN1CCOCC1)N*; Octanoyl = CCCCCCCC(=O)*; Hexanoyl = CCCCCC(=O)*; Alaol = C[C@@H](CO)N*; NHCH2CH2NHMe = CNCCN*; Aib = CC(C)(N)C(=O)O; X3 = C[C@H](CNCCO)N*; Butyryl = CCCC(=O)*; βAla = NCCC(=O)O; X4 = OCCNCCN*

Key:
Format in all cases: functional, cell-based
NCI-H460 = experiment: Antiproliferative activity against human NCI-H460 cells assessed as reduction in cell growth by SRB assay
SK-BR-3 = experiment: Antiproliferative activity against human SKBR3 cells assessed as reduction in cell growth by SRB assay
T47D = experiment: Antiproliferative activity against human T47D cells assessed as reduction in cell growth by SRB assay
MDA-MB-468 = experiment: Antiproliferative activity against human MDA-MB-468 cells assessed as reduction in cell growth by SRB assay

Compound | IC50 (NCI-H460) [nM] | IC50 (SK-BR-3) [nM] | IC50 (T47D) [nM] | IC50 (MDA-MB-468) [nM]
CCCCCCCC[C@H](NC(=O)C(C)(C)NC(=O)C(C)(C)NC(=O)[C@H](CC1CCCCC1)NC(=O)[C@@H]1CCCN1C(=O)CCC)C(=O)N[C@@H](CC(C)C)C(=O)NC(C)(C)C(=O)N[C@@H](CC(C)C)C(=O)NCCC(=O)NCCNCCO (Butyryl-P[Cha][Aib][Aib][Gly(octyl)]L[Aib]L[βAla]-X4) | 17 | 67 | 15 | 10
CCCCCCCC[C@H](NC(=O)C(C)(C)NC(=O)C(C)(C)NC(=O)[C@H](CC1CCCCC1)NC(=O)[C@@H]1CCCN1C(=O)CCCCC)C(=O)N[C@@H](CC(C)C)C(=O)NC(C)(C)C(=O)N[C@@H](CC(C)C)C(=O)NCCC(=O)N[C@@H](C)CNCCO (Hexanoyl-P[Cha][Aib][Aib][Gly(octyl)]L[Aib]L[βAla]-{NH((S)CH(Me)CH2NHC2H4OH)}) | 4 | 18 | 7 | 5
CCCCCCCC[C@H](NC(=O)C(C)(C)NC(=O)C(C)(C)NC(=O)[C@H](CC1CCCCC1)NC(=O)[C@@H]1CCCN1)C(=O)N[C@@H](CC(C)C)C(=O)NC(C)(C)C(=O)N[C@@H](CC(C)C)C(=O)NCCC(=O)N[C@@H](C)CNCCO (H-P[Cha][Aib][Aib][Gly(octyl)]L[Aib]L[βAla]-{NH((S)CH(Me)CH2NHC2H4OH)}) | 9 | 57 | 13 | 10
CCCCCCCC[C@H](NC(=O)C(C)(C)NC(=O)C(C)(C)NC(=O)[C@H](CC1CCCCC1)NC(=O)[C@@H]1CCCN1C(=O)CCC)C(=O)N[C@@H](CC(C)C)C(=O)NC(C)(C)C(=O)N[C@@H](CC(C)C)C(=O)NCCC(=O)N[C@@H](C)CN1CCOCC1 (Butyryl-P[Cha][Aib][Aib][Gly(octyl)]L[Aib]L[βAla]-X2) | 34 | 99 | 36 | 59
CCCCCCCC[C@H](NC(=O)C(C)(C)NC(=O)C(C)(C)NC(=O)[C@H](CC1CCCCC1)NC(=O)[C@@H]1CCCN1C(=O)CCC)C(=O)N[C@@H](CC(C)C)C(=O)NC(C)(C)C(=O)N[C@@H](CC(C)C)C(=O)NCCC(=O)N[C@H](C)CNCCO (Butyryl-P[Cha][Aib][Aib][Gly(octyl)]L[Aib]L[βAla]-X3) | 50 | 205 | 31 | 31
CCCCCCCC[C@H](NC(=O)C(C)(C)NC(=O)C(C)(C)NC(=O)[C@H](CC1CCCCC1)NC(=O)[C@@H]1CCCN1C(=O)CCC)C(=O)N[C@@H](CC(C)C)C(=O)NC(C)(C)C(=O)N[C@@H](CC(C)C)C(=O)NCCC(=O)NCCNC (Butyryl-P[Cha][Aib][Aib][Gly(octyl)]L[Aib]L[βAla]-NHCH2CH2NHMe) | 10 | 27 | 8 | 5
CCCCCCCC[C@H](NC(=O)C(C)(C)NC(=O)C(C)(C)NC(=O)[C@H](CC1CCCCC1)NC(=O)[C@@H]1CCCN1C(=O)CCC)C(=O)N[C@@H](CC(C)C)C(=O)NC(C)(C)C(=O)N[C@@H](CC(C)C)C(=O)NCCC(=O)N[C@@H](C)CO (Butyryl-P[Cha][Aib][Aib][Gly(octyl)]L[Aib]L[βAla]-Alaol) | 130 | 509 | 490 | 336
CCCCCCCC[C@H](NC(=O)C(C)(C)NC(=O)C(C)(C)NC(=O)[C@H](CC1CCCCC1)NC(=O)[C@@H]1CCCN1C(C)=O)C(=O)N[C@@H](CC(C)C)C(=O)NC(C)(C)C(=O)N[C@@H](CC(C)C)C(=O)NCCC(=O)N[C@@H](C)CNCCO (Ac-P[Cha][Aib][Aib][Gly(octyl)]L[Aib]L[βAla]-{NH((S)CH(Me)CH2NHC2H4OH)}) | 11 | 52 | 15 | 13
CCCCCCCC[C@H](NC(=O)C(C)(C)NC(=O)C(C)(C)NC(=O)[C@H](CC1CCCCC1)NC(=O)[C@@H]1CCCN1C(=O)CCC)C(=O)N[C@@H](CC(C)C)C(=O)NC(C)(C)C(=O)N[C@@H](CC(C)C)C(=O)NCCC(=O)N[C@@H](C)CN(C)C (Butyryl-P[Cha][Aib][Aib][Gly(octyl)]L[Aib]L[βAla]-{NH((S)CH(Me)CH2NMe2)}) | 4 | 10 | 6 | 4
CCCCCCCC[C@H](NC(=O)C(C)(C)NC(=O)C(C)(C)NC(=O)[C@H](CC1CCCCC1)NC(=O)[C@@H]1CCCCN1C(=O)CCC)C(=O)N[C@@H](CC(C)C)C(=O)NC(C)(C)C(=O)N[C@@H](CC(C)C)C(=O)NCCC(=O)N[C@@H](C)CNCCO (Butyryl-[Pip][Cha][Aib][Aib][Gly(octyl)]L[Aib]L[βAla]-{NH((S)CH(Me)CH2NHC2H4OH)}) | 9 | 34 | 11 | 11
CCCCCCCC[C@H](NC(=O)C(C)(C)NC(=O)C(C)(C)NC(=O)[C@H](CC1CCCCC1)NC(=O)[C@@H]1CCCN1C(=O)CCCCCCC)C(=O)N[C@@H](CC(C)C)C(=O)NC(C)(C)C(=O)N[C@@H](CC(C)C)C(=O)NCCC(=O)N[C@@H](C)CNCCO (Octanoyl-P[Cha][Aib][Aib][Gly(octyl)]L[Aib]L[βAla]-{NH((S)CH(Me)CH2NHC2H4OH)}) | 4 | 15 | 7 | 4
